In this assay the test system is N9 NA of A/Shanghai/2/2013 (SH13) (H7N9), virus A/Shanghai/2/2013 (H7N9)-PR8-IDCDC-RG32A. Format: biochemical, Influenza A virus (A/Shanghai/2/2013(H7N9)).

Structures are written as SMILES.

What is called IC50 is the concentration that gives 50% inhibition. A higher IC50 goes with weaker potency in that assay.

As for `CC(=O)N[C@H]1[C@H]([C@H](O)[C@H](O)CO)OC(C(=O)O)=C[C@@H]1N=C(N)N` [zanamivir], the IC50 is 7.6 nM.

Source of the values: publication PMC6941661 (Cell host & microbe, 2019).
